Experimental data from ChEMBL document CHEMBL4828778, “Novel Compounds as PHD Inhibitors for Treating Heart, Lung, Liver, and Kidney Diseases” (ACS Med Chem Lett, 2021).

Tests used:
Egl nine homolog 1 = Egl nine homolog 1 (Homo sapiens, UniProt Q9GZT9); test: Inhibition of full length human N-terminal His-tagged/TEV cleavage fused PHD2 expressed in baculovirus infected insect cells using HIF1/C35 complex as substrate preincubated for 30 mins followed by substrate addition measured after 10 mins by TR-FRET assay
Prolyl hydroxylase EGLN3 = Prolyl hydroxylase EGLN3 (Homo sapiens, UniProt Q9H6Z9); test: Inhibition of recombinant full length human N-terminal 6His-tagged PHD3 expressed Escherichia coli using HIF1/C35 complex as substrate preincubated for 30 mins followed by substrate addition measured after 10 mins by TR-FRET assay
Prolyl hydroxylase EGLN2 = Prolyl hydroxylase EGLN2 (Homo sapiens, UniProt Q96KS0); test: Inhibition of recombinant full length human N-terminal FLAG-tagged PHD1 expressed in baculovirus expression system using HIF1/C35 complex as substrate preincubated for 30 mins followed by substrate addition measured after 10 mins by TR-FRET assay

Measured: IC50

Sequence of Prolyl hydroxylase EGLN2 (Q96KS0 whole entry): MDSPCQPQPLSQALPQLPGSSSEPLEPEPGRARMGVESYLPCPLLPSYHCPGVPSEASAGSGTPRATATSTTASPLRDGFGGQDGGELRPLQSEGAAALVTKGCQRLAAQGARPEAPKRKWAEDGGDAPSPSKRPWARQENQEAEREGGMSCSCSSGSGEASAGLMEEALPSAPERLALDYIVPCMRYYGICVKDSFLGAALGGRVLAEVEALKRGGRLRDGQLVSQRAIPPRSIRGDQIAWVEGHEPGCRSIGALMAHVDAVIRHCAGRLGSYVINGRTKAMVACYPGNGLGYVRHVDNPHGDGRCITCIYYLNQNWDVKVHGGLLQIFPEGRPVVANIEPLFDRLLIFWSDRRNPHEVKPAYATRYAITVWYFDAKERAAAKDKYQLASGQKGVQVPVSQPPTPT
Sequence of Prolyl hydroxylase EGLN3 (Q9H6Z9 whole entry): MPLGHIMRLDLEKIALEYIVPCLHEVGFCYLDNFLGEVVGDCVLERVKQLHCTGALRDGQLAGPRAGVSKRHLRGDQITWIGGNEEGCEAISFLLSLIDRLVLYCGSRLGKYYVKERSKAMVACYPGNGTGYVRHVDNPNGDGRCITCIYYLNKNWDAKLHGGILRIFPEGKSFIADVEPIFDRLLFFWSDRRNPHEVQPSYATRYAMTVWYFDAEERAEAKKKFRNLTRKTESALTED
Sequence of Egl nine homolog 1 (Q9GZT9 whole entry, the tested form may be a part): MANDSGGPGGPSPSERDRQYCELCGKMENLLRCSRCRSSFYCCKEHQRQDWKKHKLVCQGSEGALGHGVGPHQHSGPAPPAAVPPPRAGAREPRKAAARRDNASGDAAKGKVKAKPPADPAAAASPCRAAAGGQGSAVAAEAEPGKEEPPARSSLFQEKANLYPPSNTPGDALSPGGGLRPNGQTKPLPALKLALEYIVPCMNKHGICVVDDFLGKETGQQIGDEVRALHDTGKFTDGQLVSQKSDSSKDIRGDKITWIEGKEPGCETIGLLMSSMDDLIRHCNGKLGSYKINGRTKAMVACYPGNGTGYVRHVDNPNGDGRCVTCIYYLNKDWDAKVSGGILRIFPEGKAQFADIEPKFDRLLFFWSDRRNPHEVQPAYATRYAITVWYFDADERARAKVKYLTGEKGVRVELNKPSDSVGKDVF

CCC(=O)Nc1ccc(-n2ncc(-c3ccc(C#N)cc3)c2O)nc1
< 100 nM: Egl nine homolog 1 | Prolyl hydroxylase EGLN3 | Prolyl hydroxylase EGLN2

N#Cc1ccc(-c2cnn(-c3ccc(-c4nccs4)cn3)c2O)cc1
< 100 nM: Egl nine homolog 1 | Prolyl hydroxylase EGLN3 | Prolyl hydroxylase EGLN2

CS(=O)(=O)c1ccc(-n2ncc(-c3ccc(C#N)cc3)c2O)nc1
< 100 nM: Egl nine homolog 1 | Prolyl hydroxylase EGLN3 | Prolyl hydroxylase EGLN2

CC(=O)c1ccc(-n2ncc(-c3ccc(C#N)cc3)c2O)nc1
< 100 nM: Egl nine homolog 1 | Prolyl hydroxylase EGLN3 | Prolyl hydroxylase EGLN2

N#Cc1ccc(-c2cnn(-c3ccc(N4CCCC4=O)cn3)c2O)cc1
< 100 nM: Egl nine homolog 1 | Prolyl hydroxylase EGLN3 | Prolyl hydroxylase EGLN2

CCS(=O)(=O)Nc1ccc(-n2ncc(-c3ccc(C#N)cc3)c2O)nc1
< 100 nM: Egl nine homolog 1 | Prolyl hydroxylase EGLN3 | Prolyl hydroxylase EGLN2
